Data as given in patent US6951651B2, “CTL epitope analogs” (priority 1999, dated 2005).
Where two headings read alike, the source gives them in different places. Ends that are not written are not given here.

Columns and labels:
T cell clone VB57 = experiment: Chromium release assay, peptide-sensitized targets lysed by T cell clone VB57; type: cell-based, human; details: for Peptide Concentration (nM), Amide, VB57: carboxyl terminal amide peptide
From the text: (§1) To take advantage of the increased immunogenicity of peptides 44 and 46, while maintaining the universal recognition of the native peptide, library-directed changes were made to peptides 44 and 46, substituting back the native amino acids. A series of 21 peptides were constructed based upon the sequence of the tetra-substituted peptides 44 and 46 in each of the carboxyl terminal amidated and free acid forms. The peptides contained single, double, or triple substitutions of amino acids of the native sequence at the positions indicated. These peptides were assayed utilizing a standard chromium release assay with the screening T cell clone, 3-3F4, and a representative T cell clone (VB57) from another individual expressing a different T cell receptor.

T cell clone 3-3F4 [1] = experiment: Chromium release assay, peptide-sensitized targets lysed by T cell clone 3-3F4; type: cell-based, human; details: for Peptide Concentration (nM), Amide, 3-3F4: carboxyl terminal amide peptide; for Peptide Concentration (nM), Amide, 3-3F4 / Peptide Concentration (nM), Free Acid, 3-3F4: chromium release, T cell clone 3-3F4; for Conc. (nM): concentration of peptide in which specific killing was between 15 and 30 percent: HLA A*0201-restricted EBVLCL targets, 3-3F4 effectors, E:T=5, 10-fold dilutions 500-0.00005 nM; for recognition by T cell clone 3-3F4 (in words): chromium release assay
Procedure: Nonamer peptides with the substitutions as shown at each position were synthesized as described in Example 1. […] Results of these assays are shown in the right-hand column of Table II, in terms of concentration of peptide (nM) in which specific killing was between 15 and 30 percent. Results presented are the average from at least three independent experiments carried out on different days using different batches of T cell […]. Peptides were tested using 10-fold dilutions, ranging from 500-0.00005 nM.
as §1

[2] = system: T cell clones from HLA A*0201 individuals seropositive for HCMV; details: for T cell clones giving greater specific cytotoxicity at a lower concentration than the native sequence: five T cell clones, EBVLCL targets sensitized at 5.0 or 0.5 nM; for recognition by T cell clones other than 3-3F4: four additional T cell clones from different HCMV-seropositive volunteers, up to 5 nM
Procedure: Chromium release assays were performed according to the methods of (20). Briefly, target cell lines (antigen presenting cells which present pp65495-503) were labeled for one hour with 200 μCi/ml ^51Cr (ICN™, Costa Mesa, Calif.). HCMV infected targets were prepared as follows. Five-hundred thousand fibroblasts were pretreated with 800 U/10^6 recombinant IFN-γ, (Preprotech™, Rocky Hill, N.J.) to upregulate MHC class I expression and HCMV was added at an m.o.i. of 4. Cells were incubated with virus for two hours at 37° C., in a 5% CO2 incubator. Fresh FBM containing IFN-γ was then added and the cells incubated for an additional 14 hours. Infected fibroblasts were trypsinized, labeled with ^51Cr as described above and used in the assay at an effector-to-target ratio (E/T) of 50 and 10. Epstein-Barr virus transformed B cell lines (EBVLCL) were generated following standard technology using the supernatant of EBV-infected marmoset cells. EBVLCL were grown in medium consisting of RPMI-1640 (Gibco™, Rockville, Md.) supplemented with 10% FBS, 10 mM Hepes Buffer Solution (Irvine Scientific™, Santa Ana, Calif.), penicillin, streptomycin and L-glutamine as described for fibroblast medium. The cells used as targets were prepared by pulsing with […] pp65495-503 peptide, and used at an E/T of 25 and 5. For PS-SCL screening and titration of analog peptides, T2 cells, maintained as described in Diamond et al., Blood 90:1751-1767 (1997), were pulsed with serial peptide dilutions for use as targets for T cell clone effectors at an E/T of 5.
In the assay, loaded targets and effectors were mixed in culture and incubated for four hours, at which time chromium release was measured. Supernatants were collected on filter frames (Skatron™, Oslo, Norway) and radioactivity determined in a Cobra II gamma counter (Packard™, Meriden, Conn.). For each assay, spontaneous release from the target cells in the absence of effector CTL and maximum possible release after treatment with 2% SDS (Baker Chemicals™, Phillipsburg, N.J.) was determined. Specific cytotoxicity was defined as: 100×[(Re−Rs)/Max−Rs)], where Re=experimental release, and Rs=spontaneous release.
The T cell clones were stimulated in vitro with the native sequence of pp65495-503 (SEQ ID NO:1) as described in Example 2.

T cell clone 3-3F4 [3] = experiment: Flow-cytometric HLA A2-Ig dimer binding to T cell clone 3-3F4; parameters: species or system human; details: specific fluorescence, peptide-loaded HLA A2-Ig dimers
Procedure: HLA A2-Ig dimer aliquots were individually loaded with a series of peptides, and incubated with two different T cell clones, 3-3F4 and VB57. The soluble HLA-A2-Ig complexes (HLA dimers) were loaded with peptide according to the methods of Greten et al., Proc. Natl. Acad. Sci. USA 95:7568-7573 (1998). For each peptide analog to be tested, 10 μg of HLA dimers in 10 μl PBS containing 0.02% NaN3 (Baker Chemical™, Phillipsburg, N.J.) was incubated for three days at 4° C. with 660-fold molar excess peptide. Dimers also were loaded with the pp65495-503 native peptide, an irrelevant peptide (pp54 B*0702 epitope), and 2 μl PBS buffer containing 0.02% NaN3, in all experiments to serve as controls. One microgram aliquots of peptide loaded dimers were mixed with 0.2 million of either T cell clone 3-3F4 or VB57 for 75 minutes on ice. Cells were washed in PBS containing 2% FBS and 0.02% NaN3 (WB), and subsequently stained with 0.9 μl/sample of goat anti-mouse IgG1-PE (Caltag™, Burlingame, Calif.). After two additional washings in WB, cells were analyzed by fluorescence-activated cell sorting (FACSCalibur™). Specific fluorescence was calculated as fluorescence ratio between the mean fluorescence of the peptide-loaded diners and the mean fluorescence of the buffer-loaded control diners. Peptides names ending in N are amidated, while those ending in C are free acids. Each peptide-loaded diner complex was tested at least twice with two different T cell clones (3-3F4 and VB57). The fluorescence indices indicated in the Figure are an average of both experiments.

T cell clone 3-3F4 [4] = experiment: PS-SCL screen and simultaneous native peptide titration, T2 cells, T cell clone 3-3F4; type: cell-based, human; details: E:T 5, read-out: concentration sensitizing 50% maximal lysis of T2 cells by 3-3F4
Procedure: Chromium release assays were performed according to the methods of (20). Briefly, target cell lines (antigen presenting cells which present pp65495-503) were labeled for one hour with 200 μCi/ml ^51Cr (ICN™, Costa Mesa, Calif.). HCMV infected targets were prepared as follows. Five-hundred thousand fibroblasts were pretreated with 800 U/10^6 recombinant IFN-γ, (Preprotech™, Rocky Hill, N.J.) to upregulate MHC class I expression and HCMV was added at an m.o.i. of 4. Cells were incubated with virus for two hours at 37° C., in a 5% CO2 incubator. Fresh FBM containing IFN-γ was then added and the cells incubated for an additional 14 hours. Infected fibroblasts were trypsinized, labeled with ^51Cr as described above and used in the assay at an effector-to-target ratio (E/T) of 50 and 10. […]
In the assay, loaded targets and effectors were mixed in culture and incubated for four hours, at which time chromium release was measured. Supernatants were collected on filter frames (Skatron™, Oslo, Norway) and radioactivity determined in a Cobra II gamma counter (Packard™, Meriden, Conn.). For each assay, spontaneous release from the target cells in the absence of effector CTL and maximum possible release after treatment with 2% SDS (Baker Chemicals™, Phillipsburg, N.J.) was determined. […]

[5] = system: peripheral blood CTL of HCMV-seropositive HLA A*0201 donors; type: cell-based, human; details: amidated peptides
Procedure: Sixteen to twenty-four million of the ficoll-separated peripheral blood mononuclear cells were incubated 2-3 hours at 37° C. in a 5% CO2 incubator with 100 μM HCMV PP65495-503 peptide (SEQ ID NO: 1) in a volume of 100 μl of T cell culture medium (IVSTCM). IVSTCM consists of RPMI-1640 supplemented with 20% heat inactivated HAB serum, 10 IU/ml r-IL2 (Chiron™, Emeryville, Calif.); 25 mM Hepes Buffer Solution, 50 U/ml penicillin, 50 μg/ml streptomycin, 2 mM L-glutamine and 0.5 mM sodium pyruvate (Gibco™, Rockville, Md.). […] After the incubation period, the cells, now presenting pp65495-503 were resuspended in 2 ml IVSTCM, and γ-irradiated (2,400 rads) using the Isomedic Model 19 Gammator (Nuclear Canada, Parsippany, N.J.).
During the peptide incorporation procedure, an additional aliquot of 10-20 million cells from the same freshly separated peripheral blood mononuclear cells was depleted of CD4^+, CD16^+ and CD56^+ cells as follows. […] The resulting population was >80% CD8^+ as determined using a FAGSCalbur™ fluorescence activated cell sorter (BD Immunocytomeyry Systems™, Palo Alto, Calif.). […]
Peripheral blood from separate individuals was stimulated with peptides 115, 118, and 193 and subjected to a chromium release assay. […] Lymphocytes from three individuals were used for all four peptides, including SEQ ID NO:1, and one individual was evaluated with 193 peptide and the positive control.

HLA A*0201 = molecular target: T1, HLA A*0201 (Homo sapiens, UniProt P04439, D140Y/D185E/D98H/E176V/E277Q/G131W/G231S/I119V/I121R/I166T/I218V/L300P/L318F/N151K/N90K/P208A/P217A/Q86G/Q94H/R138H/R169H/T345S); experiment: T2 assembly assay (MHC binding affinity); details: for difference between acid and amide forms in binding to HLA A*0201: T2 assembly assay; for MHC affinity (fluorescence ratio) by T2 assembly assay: T2 cells, 100 μM peptide overnight, mAb BB7.2
T1 construct: endogenous in cells; host or cells: T2 cells (TAP-deficient); β2-microglobulin purchased from Sigma, catalogue number not given
Procedure: See the methods of Nijman et al., Eur. J. Immunol. 23:1215-1219 (1993).
For each analog to be tested, 250,000 T2 cells were washed twice and resuspended in serum free IMDM and incubated overnight with 100 μM peptide together with 15 μg/ml human β2-microglobulin (Sigma™, Lt. Louis, Mo.) at 37° C. in a 5% CO2 incubator. […] After washing twice with cold buffer, FITC-conjugated rat anti-mouse IgG2a/2b (1:40 dilution; Pharmingen™, San Diego, Calif.) was added and incubated for another 30 minutes at 4° C. The cells were washed twice in cold buffer, and mean fluorescence intensity (MFI) of 10^4 gated cells was measured using a FACSCalibur™.
Fluorescence ratio is defined as mean fluorescence with peptide/mean fluorescence without peptide. Results for the amidated peptides indicate only slight changes in MHC binding.

126N: nonamer NLLPMVVSV amide, SEQ ID NO 65 (NLLPMVVSV-NH2) [Peptide 126N]
Peptide Concentration (nM), Amide, VB57 (T cell clone VB57): 0.5 nM
Peptide Concentration (nM), Amide, 3-3F4 (T cell clone 3-3F4 [1]): 0.005 nM

127C: nonamer NLLPMVTSV, SEQ ID NO 68 (NLLPMVTSV-OH) [Peptide 127C]
Peptide Concentration (nM), Free Acid, VB57 (T cell clone VB57): >5 nM
Peptide Concentration (nM), Free Acid, 3-3F4 (T cell clone 3-3F4 [1]): 5 nM

127N: nonamer NLLPMVTSV amide, SEQ ID NO 67 (NLLPMVTSV-NH2) [Peptide 127N]
Peptide Concentration (nM), Amide, VB57 (T cell clone VB57): >5 nM
Peptide Concentration (nM), Amide, 3-3F4 (T cell clone 3-3F4 [1]): 0.05 nM

194C: nonamer NLLPMVATV, SEQ ID NO 40 (NLLPMVATV-OH) [Peptide 194C]
Peptide Concentration (nM), Free Acid, VB57 (T cell clone VB57): >5 nM
Peptide Concentration (nM), Free Acid, 3-3F4 (T cell clone 3-3F4 [1]): >5 nM

194N: nonamer NLLPMVATV amide, SEQ ID NO 39 (NLLPMVATV-NH2) [Peptide 194N]
Peptide Concentration (nM), Amide, VB57 (T cell clone VB57): 0.5 nM
Peptide Concentration (nM), Amide, 3-3F4 (T cell clone 3-3F4 [1]): 0.05 nM

195C: nonamer YLLPMVATV, SEQ ID NO 58 (YLLPMVATV-OH) [Peptide 195C]
Peptide Concentration (nM), Free Acid, VB57 (T cell clone VB57): >5 nM
Peptide Concentration (nM), Free Acid, 3-3F4 (T cell clone 3-3F4 [1]): >5 nM

195N: nonamer YLLPMVATV amide, SEQ ID NO 57 (YLLPMVATV-NH2) [Peptide 195N]
Peptide Concentration (nM), Amide, VB57 (T cell clone VB57): 0.5 nM
Peptide Concentration (nM), Amide, 3-3F4 (T cell clone 3-3F4 [1]): 0.005 nM

NLLPMVASV-NH2 [Peptide 118N]
T cell clones giving greater specific cytotoxicity at a lower concentration than the native sequence [2]: three out of five

NLVPMVATV [Peptide A7C, reference compound]
HLA-Ig dimer binding to T cell clone 3-3F4 (T cell clone 3-3F4 [3]): bound well
EC50 (T cell clone 3-3F4 [4]): 20 pM
Conc. (nM): concentration of peptide in which specific killing was between 15 and 30 percent (T cell clone 3-3F4 [1]): 0.5 nM

YLLPMVTSV-NH2 [Peptide 46N]
recognition by T cell clones other than 3-3F4 [2]: No T cell clone other than 3-3F4 recognized
recognition by T cell clones other than 3-3F4 ([2]; listed as 46): not recognized by any of the T cell clones in the cohort
recognition by individuals' peripheral blood T cells after in vitro stimulation with the peptide [5]: only T cells from the individual from whom the PS-SCL screen clone was derived showed any positive response
HLA-Ig dimer binding to T cell clone 3-3F4 (T cell clone 3-3F4 [3]): poor binders
Conc. (nM): concentration of peptide in which specific killing was between 15 and 30 percent (T cell clone 3-3F4 [1]): 0.0005 nM
recognition by T cell clone 3-3F4 (in words) (T cell clone 3-3F4 [1]): better recognized than the native epitope sequence
difference between acid and amide forms in binding to HLA A*0201 (HLA A*0201): substantial binding differences
MHC affinity (fluorescence ratio) by T2 assembly assay (HLA A*0201): not dramatically different from the native sequence

YLLPMVVSV-NH2 [Peptide 44N]
recognition by T cell clones other than 3-3F4 [2]: No T cell clone other than 3-3F4 recognized
recognition by T cell clones other than 3-3F4 ([2]; listed as 44): not recognized by any of the T cell clones in the cohort
recognition by individuals' peripheral blood T cells after in vitro stimulation with the peptide [5]: only T cells from the individual from whom the PS-SCL screen clone was derived showed any positive response
HLA-Ig dimer binding to T cell clone 3-3F4 (T cell clone 3-3F4 [3]): poor binders
Conc. (nM): concentration of peptide in which specific killing was between 15 and 30 percent (T cell clone 3-3F4 [1]): 0.00005 nM
recognition by T cell clone 3-3F4 (in words) (T cell clone 3-3F4 [1]): better recognized than the native epitope sequence
difference between acid and amide forms in binding to HLA A*0201 (HLA A*0201): substantial binding differences
MHC affinity (fluorescence ratio) by T2 assembly assay (HLA A*0201): not dramatically different from the native sequence

YLVPMVASV-NH2 [Peptide 115N]
T cell clones giving greater specific cytotoxicity at a lower concentration than the native sequence [2]: two out of five

YLVPMVATV-NH2 [Peptide 193N]
T cell clones giving greater specific cytotoxicity at a lower concentration than the native sequence [2]: two out of five
